From patent US7402548B2, “Benzoxazole compounds, process for producing the same and herbicides” (Kyoyu Agri Co., Ltd., priority 2000, dated 2008)

Columns and labels:
corn [1] = experiment: Soil treatment test for upland field; type: in vivo; parameters: key: 0 = normal development, 5 = all killed; settings: 500 g/ha, 3 weeks, glass house 25° C.
Protocol: (§1) The herbicidal effects are evaluated according to the following 6 ranks as compared with non-treated district. (0: normal development, 1: Less damaged, 2: Slightly damaged, 3: Moderately damaged, 4: Severely damaged, 5: All killed). Incidentally, “-” in the column means not investigated.
(§2) Wagner pots, each having an area of 1/5000 are, were packed with Ube soil (alluvial soil), and then each seed of corn, soybean, cotton, wheat, solgum, sugar beat, Large crabgrass, barnyard grass, green foxtail, blackgrass, annual bluegrass, common lambsquarters, livid amaranth, velvetleaf, morning glory, common Cocklebur (Xanthium strumarium) and sicklepod (Cassia obtusifolia) were planted and covered with soil.
(§3) Each wettable powder of the desired compounds (I) shown in Tables 1 to 21, 24, 25, 28 and 29 prepared in accordance with Example 2 was diluted with water containing a surfactant (0.05%) and uniformly sprayed on the surface of each soil so that an effective concentration of the compound (I) in each herbicide became 500 g/ha.
(§4) These plants were controlled in a glass house at an average temperature of 25° C. for 3 weeks, and then herbicidal effects thereof were investigated.
(§5) The herbicidal effects were evaluated according to the evaluation method described in the above (1).

solgum [2] = experiment: Soil treatment test for upland field; type: in vivo; parameters: key: 0 = normal development, 5 = all killed; settings: 500 g/ha, 3 weeks, glass house 25° C.
Protocol: as §1, §2, §3, §4, §5

sugar beat [3] = experiment: Soil treatment test for upland field; type: in vivo; parameters: key: 0 = normal development, 5 = all killed; settings: 500 g/ha, 3 weeks, glass house 25° C.
Protocol: as §1, §2, §3, §4, §5

wheat [4] = experiment: Soil treatment test for upland field; type: in vivo; parameters: key: 0 = normal development, 5 = all killed; settings: 500 g/ha, 3 weeks, glass house 25° C.
Protocol: as §1, §2, §3, §4, §5

Large crabgrass [5] = experiment: Soil treatment test for upland field; type: in vivo, Digitaria adscendens; parameters: key: 0 = normal development, 5 = all killed; settings: 500 g/ha, 3 weeks, glass house 25° C.
Protocol: as §1, §2, §3, §4, §5

barnyard grass = experiment: Soil treatment test for upland field; type: in vivo, Eschinochloa crusgalli; parameters: key: 0 = normal development, 5 = all killed; settings: 500 g/ha, 3 weeks, glass house 25° C.
Protocol: as §1, §2, §3, §4, §5

green foxtail [6] = experiment: Soil treatment test for upland field; type: in vivo, Setaria viridis; parameters: key: 0 = normal development, 5 = all killed; settings: 500 g/ha, 3 weeks, glass house 25° C.
Protocol: as §1, §2, §3, §4, §5

blackgrass [7] = experiment: Soil treatment test for upland field; type: in vivo, Alopecurus aegualis; parameters: key: 0 = normal development, 5 = all killed; settings: 500 g/ha, 3 weeks, glass house 25° C.
Protocol: as §1, §2, §3, §4, §5

annual bluegrass [8] = experiment: Soil treatment test for upland field; type: in vivo, Poa annua; parameters: key: 0 = normal development, 5 = all killed; settings: 500 g/ha, 3 weeks, glass house 25° C.
Protocol: as §1, §2, §3, §4, §5

common lambsquarters [9] = experiment: Soil treatment test for upland field; type: in vivo, Chenopodium album; parameters: key: 0 = normal development, 5 = all killed; settings: 500 g/ha, 3 weeks, glass house 25° C.
Protocol: as §1, §2, §3, §4, §5

livid amaranth [10] = experiment: Soil treatment test for upland field; type: in vivo, Amaranthus lividus; parameters: key: 0 = normal development, 5 = all killed; settings: 500 g/ha, 3 weeks, glass house 25° C.
Protocol: as §1, §2, §3, §4, §5

velvetleaf [11] = experiment: Soil treatment test for upland field; type: in vivo, Abutilon theophrasti; parameters: key: 0 = normal development, 5 = all killed; settings: 500 g/ha, 3 weeks, glass house 25° C.
Protocol: as §1, §2, §3, §4, §5

morning glory [12] = experiment: Soil treatment test for upland field; type: in vivo, Ipomoea spps.; parameters: key: 0 = normal development, 5 = all killed; settings: 500 g/ha, 3 weeks, glass house 25° C.
Protocol: as §1, §2, §3, §4, §5

corn [13] = experiment: Foliar spread test for upland field; type: in vivo; parameters: key: 0 = normal development, 5 = all killed (6 ranks vs. untreated); settings: foliar spray, 500 ppm, 3 weeks, glass house 25° C.
Protocol: as §1
(§6) Wagner pots, each having an area of 1/5000 are, were packed with volcanic ash soil and then each seed of corn, soybean, cotton, wheat, solgum, sugar beat, Large crabgrass, barnyardgrjass, green foxtail, blackgrass, annual bluegrass, common lambsquarters, livid amaranth, velvetleaf, morning glory, Xanthium pensylvanicum and Cassia obtusifolia was planted, covered with soil and grown in a glass house at an average temperature of 25° C. for about 2 weeks.
(§7) Each wettable powder of the desired compounds (I) shown in Tables 1 to 21, 24, 25, 28 and 29 prepared in accordance with Example 2 was diluted to 500 ppm with water containing a surfactant (0.5%) and then uniformly sprayed on the above respective plants.
(§8) After these plants were controlled in a glass house at an average temperature of 25° C. for 3 weeks, the herbicidal effects thereof were investigated.
as §5

cotton = experiment: Foliar spread test for upland field; type: in vivo; parameters: key: 0 = normal development, 5 = all killed (6 ranks vs. untreated); settings: foliar spray, 500 ppm, 3 weeks, glass house 25° C.
Protocol: as §1, §6, §7, §8, §5

solgum [14] = experiment: Foliar spread test for upland field; type: in vivo; parameters: key: 0 = normal development, 5 = all killed (6 ranks vs. untreated); settings: foliar spray, 500 ppm, 3 weeks, glass house 25° C.
Protocol: as §1, §6, §7, §8, §5

soybean [15] = experiment: Foliar spread test for upland field; type: in vivo; parameters: key: 0 = normal development, 5 = all killed (6 ranks vs. untreated); settings: foliar spray, 500 ppm, 3 weeks, glass house 25° C.
Protocol: as §1, §6, §7, §8, §5

sugar beat [16] = experiment: Foliar spread test for upland field; type: in vivo; parameters: key: 0 = normal development, 5 = all killed (6 ranks vs. untreated); settings: foliar spray, 500 ppm, 3 weeks, glass house 25° C.
Protocol: as §1, §6, §7, §8, §5

wheat [17] = experiment: Foliar spread test for upland field; type: in vivo; parameters: key: 0 = normal development, 5 = all killed (6 ranks vs. untreated); settings: foliar spray, 500 ppm, 3 weeks, glass house 25° C.
Protocol: as §1, §6, §7, §8, §5

Large crabgrass [18] = experiment: Foliar spread test for upland field; type: in vivo, Digitaria adscendens; parameters: key: 0 = normal development, 5 = all killed (6 ranks vs. untreated); settings: foliar spray, 500 ppm, 3 weeks, glass house 25° C.
Protocol: as §1, §6, §7, §8, §5

barnyardgrjass = experiment: Foliar spread test for upland field; type: in vivo, Eschinochloa crusgalli; parameters: key: 0 = normal development, 5 = all killed (6 ranks vs. untreated); settings: foliar spray, 500 ppm, 3 weeks, glass house 25° C.
Protocol: as §1, §6, §7, §8, §5

green foxtail [19] = experiment: Foliar spread test for upland field; type: in vivo, Setaria viridis; parameters: key: 0 = normal development, 5 = all killed (6 ranks vs. untreated); settings: foliar spray, 500 ppm, 3 weeks, glass house 25° C.
Protocol: as §1, §6, §7, §8, §5

blackgrass [20] = experiment: Foliar spread test for upland field; type: in vivo, Alopecurus aegualis; parameters: key: 0 = normal development, 5 = all killed (6 ranks vs. untreated); settings: foliar spray, 500 ppm, 3 weeks, glass house 25° C.
Protocol: as §1, §6, §7, §8, §5

annual bluegrass [21] = experiment: Foliar spread test for upland field; type: in vivo, Poa annua; parameters: key: 0 = normal development, 5 = all killed (6 ranks vs. untreated); settings: foliar spray, 500 ppm, 3 weeks, glass house 25° C.
Protocol: as §1, §6, §7, §8, §5

common lambsquarters [22] = experiment: Foliar spread test for upland field; type: in vivo, Chenopodium album; parameters: key: 0 = normal development, 5 = all killed (6 ranks vs. untreated); settings: foliar spray, 500 ppm, 3 weeks, glass house 25° C.
Protocol: as §1, §6, §7, §8, §5

livid amaranth [23] = experiment: Foliar spread test for upland field; type: in vivo, Amaranthus lividus; parameters: key: 0 = normal development, 5 = all killed (6 ranks vs. untreated); settings: foliar spray, 500 ppm, 3 weeks, glass house 25° C.
Protocol: as §1, §6, §7, §8, §5

velvetleaf [24] = experiment: Foliar spread test for upland field; type: in vivo, Abutilon theophrasti; parameters: key: 0 = normal development, 5 = all killed (6 ranks vs. untreated); settings: foliar spray, 500 ppm, 3 weeks, glass house 25° C.
Protocol: as §1, §6, §7, §8, §5

morning glory [25] = experiment: Foliar spread test for upland field; type: in vivo, Ipomoea spps.; parameters: key: 0 = normal development, 5 = all killed (6 ranks vs. untreated); settings: foliar spray, 500 ppm, 3 weeks, glass house 25° C.
Protocol: as §1, §6, §7, §8, §5

soybean [26] = experiment: Soil treatment test for upland field; type: in vivo; parameters: key: 0 = normal development, 5 = all killed; settings: 500 g/ha, 3 weeks, glass house 25° C.
Protocol: as §1, §2, §3, §4, §5

Row | Structure (SMILES) | Effects Corn (corn [1]) | Effects Solgum (solgum [2]) | Effects Sugar beat (sugar beat [3]) | Effects Wheat (wheat [4]) | Effects Large crabgrass (Large crabgrass [5]) | Effects Barnyardgrass (barnyard grass) | Effects Green foxtail (green foxtail [6]) | Effects Blackgrass (blackgrass [7]) | Effects Annual bluegrass (annual bluegrass [8]) | Effects Common lambsquarters (common lambsquarters [9]) | Effects Livid amaranth (livid amaranth [10]) | Effects Velvetleaf (velvetleaf [11]) | Effects Morning glory (morning glory [12]) | Effects Corn (corn [13]) | Effects Sotton (cotton) | Effects Wheat (wheat [17]) | Effects Large crabgrass (Large crabgrass [18]) | Effects Green foxtail (green foxtail [19]) | Effects Common lambsquarters (common lambsquarters [22]) | Effects Livid amaranth (livid amaranth [23]) | also measured
1 | CCCC(=Cc1cccc(C(F)(F)F)c1)c1nc2cc(C#N)ccc2o1 [I-c-83] | 2 | 1 | 5 | 1 | 5 | 4 | 5 | 5 | 5 | 5 | 5 | 5 | 5 | 3 | 5 | 2 | 4 | 5 | 5 | 5 | Effects Solgum (solgum [14]): 3; Effects Soybean (soybean [15]): 4; Effects Sugar beat (sugar beat [16]): 5; Effects Barnyardgrass (barnyardgrjass): 2; Effects Blackgrass (blackgrass [20]): 4; Effects Annual bluegrass (annual bluegrass [21]): 4; Effects Velvetleaf (velvetleaf [24]): 4; Effects Morning glory (morning glory [25]): 5
2 | CCCC(=Cc1cccc(C(F)(F)F)c1)c1nc2cc(F)ccc2o1 [I-c-44] | 2 | 3 | 5 | 2 | 5 | 5 | 5 | 5 | 5 | 5 | 5 | 3 | 2 | 2 | 3 | 2 | 4 | 4 | 5 | 5 | Effects Solgum (solgum [14]): 2; Effects Soybean (soybean [15]): 5; Effects Sugar beat (sugar beat [16]): 3; Effects Barnyardgrass (barnyardgrjass): 2; Effects Blackgrass (blackgrass [20]): 3; Effects Annual bluegrass (annual bluegrass [21]): 4; Effects Velvetleaf (velvetleaf [24]): 2; Effects Morning glory (morning glory [25]): 5
3 | CCC(Oc1cc(C(F)(F)F)nn1C)c1nc2cc(Cl)ccc2o1 (centres unmarked) [Compound 1-e-2] | 0 | – | – | 0 | 3 | – | 3 | – | 3 | 2 | 5 | – | – | 1 | – | 1 | – | 2 | 3 | 4 | Effects Soybean (soybean [26]): 0
4 | CCC(Oc1cc(C(F)(F)F)on1)c1nc2cc(C#N)c(F)cc2o1 (centres unmarked) [I-e-40, 1-(5-cyano-6-fluorobenzoxazol-2-yl)-1-(5-trifluoromethylisoxazol-3-yloxy)propane] | 1 | – | – | 0 | 5 | 5 | 5 | – | 5 | 5 | 5 | – | – | – | – | 2 | 4 | 4 | 5 | 5 | Effects Soybean (soybean [26]): 2
5 | CC(=Cc1cccc(C(F)(F)F)c1)c1nc2cc(C#N)c(Cl)cc2o1 [I-c-141] | 0 | 0 | 5 | 0 | 5 | 4 | 5 | 4 | 5 | 5 | 5 | 5 | 5 | 2 | 5 | 1 | 3 | 5 | 5 | 5 | Effects Solgum (solgum [14]): 1; Effects Soybean (soybean [15]): 3; Effects Sugar beat (sugar beat [16]): 5; Effects Barnyardgrass (barnyardgrjass): 1; Effects Blackgrass (blackgrass [20]): 1; Effects Annual bluegrass (annual bluegrass [21]): 3; Effects Velvetleaf (velvetleaf [24]): 4; Effects Morning glory (morning glory [25]): 5
6 | CCCC(Oc1cc(C)nc(SC)n1)c1nc2cc(C#N)c(F)cc2o1 (centres unmarked) [Compound 1-e-65] | 0 | – | – | 0 | 4 | – | 4 | – | – | 2 | 5 | – | – | – | – | – | – | – | – | – | Effects Soybean (soybean [26]): 0
7 | CCC(=Cc1cccc(C(F)(F)F)c1)c1nc2ccc([N+](=O)[O-])cc2o1 [I-c-15] | 1 | 1 | 2 | 1 | 5 | 4 | 5 | 5 | 5 | 5 | 5 | 2 | 2 | 2 | 3 | 2 | 4 | 4 | 5 | 5 | Effects Solgum (solgum [14]): 2; Effects Soybean (soybean [15]): 5; Effects Sugar beat (sugar beat [16]): 4; Effects Barnyardgrass (barnyardgrjass): 3; Effects Blackgrass (blackgrass [20]): 3; Effects Annual bluegrass (annual bluegrass [21]): 4; Effects Velvetleaf (velvetleaf [24]): 3; Effects Morning glory (morning glory [25]): 5
